Data reported in patent US20150344540A1, “NOVEL GLP-1 RECEPTOR AGONISTS WITH CHOLESTEROL EFFLUX ACTIVITY” (NOVO NORDISK A/S, priority 2012, published 2015).
pEC50: −log10 of the molar value. Where two headings read alike, the source gives them in different places. Where a SMILES comes first, the peptide text is derived from it. Where no end group is shown, it is not given here. [ ]: non-standard residue; d: D form. Aib = CC(C)(N)C(=O)O

Tests used:
[1] = test system: Mouse monocyte/macrophage cell line, RAW 264.7; assay: Cholesterol efflux assay (3H-cholesterol, macrophage cell line); format: cell-based; conditions: RAW 264.7, 4 hrs incubation, 0.1% human serum albumin; for 4 h Cholesterol Efflux Emax: ABCA1-mediated efflux
human GLP-1 receptor = human GLP-1 receptor (Homo sapiens, UniProt P43220); assay: Functional GLP-1 receptor assay, in vitro potency (CRE luciferase; whole cells); format: cell-based; conditions: BHK cells expressing human GLP-1 receptor
human GLP-1 receptor, sequence (P43220 24-463): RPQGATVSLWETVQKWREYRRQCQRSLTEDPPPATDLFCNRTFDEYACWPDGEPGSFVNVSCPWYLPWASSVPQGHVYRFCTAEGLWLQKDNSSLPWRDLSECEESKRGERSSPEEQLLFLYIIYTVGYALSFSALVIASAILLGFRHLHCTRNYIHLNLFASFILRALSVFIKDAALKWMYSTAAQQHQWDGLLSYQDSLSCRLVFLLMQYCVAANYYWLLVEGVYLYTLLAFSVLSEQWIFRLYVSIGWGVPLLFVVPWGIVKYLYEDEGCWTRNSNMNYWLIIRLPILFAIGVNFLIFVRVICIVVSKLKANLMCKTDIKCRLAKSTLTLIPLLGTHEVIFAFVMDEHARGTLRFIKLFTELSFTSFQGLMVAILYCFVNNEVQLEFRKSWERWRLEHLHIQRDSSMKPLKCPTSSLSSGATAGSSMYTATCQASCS

Molecule | 4 h Cholesterol Efflux Emax [1] [%] | also measured
HAEGTFTSDLSKQMEEEAVREFIEWLKNKVLEFL-NH2 [Compound 69, [Ala2,Glu21,Lys29,Val30,Leu31,Glu32,Phe33,Leu34]-Exendin-4-(1-34)-peptide amide] |  | pEC50 ([1]; read-out: 4 h Cholesterol Efflux EC50, ABCA1-mediated efflux (CPT-cAMP induced minus non-induced)): 6.39; pEC50 (human GLP-1 receptor; 0% HSA, read-out: GLP1R CRE luc 0% HSA EC50 Mean Value): 10.51; pEC50 (human GLP-1 receptor; GLP1R CRE luc 1% HSA EC50 Mean Value, 1% HSA): 10.70
CC[C@H](C)[C@H](NC(=O)[C@H](Cc1ccccc1)NC(=O)[C@H](CCC(=O)O)NC(=O)[C@H](CCCCN)NC(=O)[C@@H](NC(=O)[C@H](C)NC(=O)[C@H](CCC(=O)O)NC(=O)CNC(=O)[C@H](CCC(=O)O)NC(=O)[C@H](CC(C)C)NC(=O)[C@H](Cc1ccc(O)cc1)NC(=O)[C@H](CO)NC(=O)[C@H](CO)NC(=O)[C@@H](NC(=O)[C@H](CC(=O)O)NC(=O)[C@H](CO)NC(=O)[C@@H](NC(=O)[C@H](Cc1ccccc1)NC(=O)[C@@H](NC(=O)CNC(=O)[C@H](CCC(=O)O)NC(=O)C(C)(C)NC(=O)[C@@H](N)Cc1c[nH]cn1)[C@@H](C)O)[C@@H](C)O)C(C)C)C(C)C)C(=O)N[C@@H](CCCCN)C(=O)N[C@@H](Cc1c[nH]c2ccccc12)C(=O)N[C@@H](CC(C)C)C(=O)N[C@H](C(=O)N[C@@H](CCC(=O)O)C(=O)N[C@@H](CCCCN)C(=O)N[C@@H](CC(C)C)C(=O)N[C@@H](CCCCN)C(=O)N[C@@H](CCC(=O)O)C(=O)N[C@@H](Cc1ccccc1)C(=O)N[C@@H](CC(C)C)C(N)=O)C(C)C [Compound 85, [Aib8,Glu23,Val25,Lys30,Glu34,Lys35,Leu36,Lys37]-GLP-1-(7-37)-peptidyl-Glu-Phe-Leu amide] (H-H[Aib]EGTFTSDVSSYLEGEAVKEFIKWLVEKLKEFL-NH2) | 93 | 
CC[C@H](C)[C@H](NC(=O)[C@H](Cc1ccccc1)NC(=O)[C@H](CCC(=O)O)NC(=O)[C@H](CCCCN)NC(=O)[C@@H](NC(=O)[C@H](C)NC(=O)[C@H](CCC(=O)O)NC(=O)CNC(=O)[C@H](CCC(=O)O)NC(=O)[C@H](CC(C)C)NC(=O)[C@H](Cc1ccc(O)cc1)NC(=O)[C@H](CO)NC(=O)[C@H](CO)NC(=O)[C@@H](NC(=O)[C@H](CC(=O)O)NC(=O)[C@H](CO)NC(=O)[C@@H](NC(=O)[C@H](Cc1ccccc1)NC(=O)[C@@H](NC(=O)CNC(=O)[C@H](CCC(=O)O)NC(=O)C(C)(C)NC(=O)[C@@H](N)Cc1c[nH]cn1)[C@@H](C)O)[C@@H](C)O)C(C)C)C(C)C)C(=O)N[C@@H](C)C(=O)N[C@@H](Cc1c[nH]c2ccccc12)C(=O)N[C@@H](CC(C)C)C(=O)N[C@H](C(=O)N[C@@H](CCC(=O)O)C(=O)N[C@@H](CCCCN)C(=O)NC(C)(C)C(=O)N[C@@H](CC(C)C)C(=O)N[C@@H](CO)C(=O)N[C@@H](Cc1ccccc1)C(=O)N[C@@H](CC(C)C)C(N)=O)C(C)C [Compound 88] (H-H[Aib]EGTFTSDVSSYLEGEAVKEFIAWLVEK[Aib]LSFL-NH2) | 69 | 
CC[C@H](C)[C@H](NC(=O)[C@H](Cc1ccccc1)NC(=O)[C@H](CCC(=O)O)NC(=O)[C@H](CCCNC(=N)N)NC(=O)[C@@H](NC(=O)[C@H](C)NC(=O)[C@H](CCC(=O)O)NC(=O)[C@H](CCC(=O)O)NC(=O)[C@H](CCC(=O)O)NC(=O)[C@H](CCSC)NC(=O)[C@H](CCC(N)=O)NC(=O)[C@H](CCCCN)NC(=O)[C@H](CO)NC(=O)[C@H](CC(C)C)NC(=O)[C@H](CC(=O)O)NC(=O)[C@H](CO)NC(=O)[C@@H](NC(=O)[C@H](Cc1ccccc1)NC(=O)[C@@H](NC(=O)CNC(=O)[C@H](CCC(=O)O)NC(=O)C(C)(C)NC(=O)[C@@H](N)Cc1c[nH]cn1)[C@@H](C)O)[C@@H](C)O)C(C)C)C(=O)N[C@@H](CCC(=O)O)C(=O)N[C@@H](Cc1c[nH]c2ccccc12)C(=O)N[C@@H](CC(C)C)C(=O)N[C@@H](CCCCN)C(=O)N[C@@H](CC(N)=O)C(=O)N[C@@H](CCCCN)C(=O)NC(C)(C)C(=O)N[C@@H](CC(C)C)C(=O)N[C@@H](CCC(=O)O)C(=O)N[C@@H](Cc1ccccc1)C(=O)N[C@@H](CC(C)C)C(=O)N[C@@H](C)C(=O)N[C@@H](CC(C)C)C(=O)N[C@@H](CC(C)C)C(N)=O [Compound 41, [Aib2,Glu21,Lys29,Aib30,Leu31,Glu32,Phe33,Leu34,Leu36,Leu371-Exendin-4-(1-37)-peptide amide] (H-H[Aib]EGTFTSDLSKQMEEEAVREFIEWLKNK[Aib]LEFLALL-NH2; N-terminus assumed) | 98 | 
CC[C@H](C)[C@H](NC(=O)[C@H](Cc1ccccc1)NC(=O)[C@H](CC(=O)O)NC(=O)[C@H](CCCCN)NC(=O)[C@@H](NC(=O)[C@H](C)NC(=O)[C@H](CC(=O)O)NC(=O)CNC(=O)[C@H](CCC(=O)O)NC(=O)[C@H](CC(C)C)NC(=O)[C@H](Cc1ccc(O)cc1)NC(=O)[C@H](CO)NC(=O)[C@H](CO)NC(=O)[C@@H](NC(=O)[C@H](CC(=O)O)NC(=O)[C@H](CO)NC(=O)[C@@H](NC(=O)[C@H](Cc1ccccc1)NC(=O)[C@@H](NC(=O)CNC(=O)[C@H](CCC(=O)O)NC(=O)C(C)(C)NC(=O)[C@@H](N)Cc1c[nH]cn1)[C@@H](C)O)[C@@H](C)O)C(C)C)C(C)C)C(=O)N[C@@H](C)C(=O)N[C@@H](Cc1c[nH]c2ccccc12)C(=O)N[C@@H](CC(C)C)C(=O)N[C@H](C(=O)N[C@@H](CCC(=O)O)C(=O)N[C@@H](CCCCN)C(=O)NC(C)(C)C(=O)N[C@@H](CCCCN)C(=O)N[C@@H](CCC(=O)O)C(=O)N[C@@H](Cc1ccccc1)C(=O)N[C@@H](CC(C)C)C(N)=O)C(C)C [Compound 18, [Aib8,Asp23,Val25,Asp27,Glu34,Lys35,Aib36,Lys37]-GLP-1-(7-37)-peptidyl-Glu-Phe-Leu amide] (H-H[Aib]EGTFTSDVSSYLEGDAVKDFIAWLVEK[Aib]KEFL-NH2) | 89 | 
CC[C@H](C)[C@H](NC(=O)[C@H](Cc1ccccc1)NC(=O)[C@H](CCC(=O)O)NC(=O)[C@H](CCCNC(=N)N)NC(=O)[C@@H](NC(=O)[C@H](C)NC(=O)[C@H](CCC(=O)O)NC(=O)[C@H](CCC(=O)O)NC(=O)[C@H](CCC(=O)O)NC(=O)[C@H](CCSC)NC(=O)[C@H](CCC(N)=O)NC(=O)[C@H](CCCCN)NC(=O)[C@H](CO)NC(=O)[C@H](CC(C)C)NC(=O)[C@H](CC(=O)O)NC(=O)[C@H](CO)NC(=O)[C@@H](NC(=O)[C@H](Cc1ccccc1)NC(=O)[C@@H](NC(=O)CNC(=O)[C@H](CCC(=O)O)NC(=O)C(C)(C)NC(=O)[C@@H](N)Cc1c[nH]cn1)[C@@H](C)O)[C@@H](C)O)C(C)C)C(=O)N[C@@H](CCC(=O)O)C(=O)N[C@@H](Cc1c[nH]c2ccccc12)C(=O)N[C@@H](CC(C)C)C(=O)N[C@@H](CCCCN)C(=O)N[C@@H](CC(N)=O)C(=O)N[C@@H](CCCCN)C(=O)NC(C)(C)C(=O)N[C@@H](CC(C)C)C(=O)N[C@@H](CCC(=O)O)C(=O)N[C@@H](Cc1ccccc1)C(=O)N[C@@H](CC(C)C)C(N)=O [Compound 42, [Aib2,Glu21, Lvs29,Aib30,Leu31,Glu32,Phe33,Leu34]-Exendin-4-(1-34)-peptide amide] (H-H[Aib]EGTFTSDLSKQMEEEAVREFIEWLKNK[Aib]LEFL-NH2; N-terminus assumed) | 105 | 
CC[C@H](C)[C@H](NC(=O)[C@H](Cc1ccccc1)NC(=O)[C@H](CCC(=O)O)NC(=O)[C@H](CCCNC(=N)N)NC(=O)[C@@H](NC(=O)[C@H](C)NC(=O)[C@H](CCC(=O)O)NC(=O)[C@H](CCC(=O)O)NC(=O)[C@H](CCC(=O)O)NC(=O)[C@H](CCSC)NC(=O)[C@H](CCC(N)=O)NC(=O)[C@H](CCCCN)NC(=O)[C@H](CO)NC(=O)[C@H](CC(C)C)NC(=O)[C@H](CC(=O)O)NC(=O)[C@H](CO)NC(=O)[C@@H](NC(=O)[C@H](Cc1ccccc1)NC(=O)[C@@H](NC(=O)CNC(=O)[C@H](CCC(=O)O)NC(=O)C(C)(C)NC(=O)[C@@H](N)Cc1c[nH]cn1)[C@@H](C)O)[C@@H](C)O)C(C)C)C(=O)N[C@@H](CCC(=O)O)C(=O)N[C@@H](Cc1c[nH]c2ccccc12)C(=O)N[C@@H](CC(C)C)C(=O)N[C@@H](CCCCN)C(=O)N[C@@H](CC(N)=O)C(=O)N[C@@H](CCCCN)C(=O)NC(C)(C)C(=O)N[C@@H](CC(C)C)C(=O)N[C@@H](CCC(=O)O)C(=O)N[C@@H](Cc1ccccc1)C(=O)N[C@@H](CC(C)C)C(=O)N[C@@H](CCC(=O)O)C(=O)N[C@@H](CC(C)C)C(=O)N[C@@H](CC(C)C)C(N)=O [Compound 29, [Aib2,Glu21,Lys29,Aib30,Leu31,Glu32,Phe33,Leu34,Glu35,Leu36,Leu371-Exendin-4-(1-37)-peptide amide] | 81 | 
CC[C@H](C)[C@H](NC(=O)[C@H](Cc1ccccc1)NC(=O)[C@H](CCC(=O)O)NC(=O)[C@H](CCCCN)NC(=O)[C@H](C)NC(=O)[C@H](C)NC(=O)[C@H](CCC(N)=O)NC(=O)CNC(=O)[C@H](CCC(=O)O)NC(=O)[C@H](CC(C)C)NC(=O)[C@H](Cc1ccc(O)cc1)NC(=O)[C@H](CO)NC(=O)[C@H](CO)NC(=O)[C@@H](NC(=O)[C@H](CC(=O)O)NC(=O)[C@H](CO)NC(=O)[C@@H](NC(=O)[C@H](Cc1ccccc1)NC(=O)[C@@H](NC(=O)CNC(=O)[C@H](CCC(=O)O)NC(=O)[C@H](C)NC(=O)[C@@H](N)Cc1c[nH]cn1)[C@@H](C)O)[C@@H](C)O)C(C)C)C(=O)N[C@@H](C)C(=O)N[C@@H](Cc1c[nH]c2ccccc12)C(=O)N[C@@H](CC(C)C)C(=O)N[C@H](C(=O)N[C@@H](CCCCN)C(=O)NCC(=O)N[C@@H](CCCNC(=N)N)C(=O)NCC(=O)O)C(C)C [GLP-1(7-37), reference compound] | <10 | 
